In PubChem BioAssay AID743161 (Sanford-Burnham Center for Chemical Genomics, 2013) one finds IC50 data, which are given here for 69 compounds.

Where “and” joins values, the source holds several entries; their conditions need not be identical. Equal values may be shown once. Calls of active or inactive are those of the source.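 Rule for the calls: active = compounds whose lipid-stain IC50 is at most a set limit, with nuclear-stain IC50 a set multiple higher; inactive = the rest.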

The test concerns H9c2 rat cardiomyoblasts, Nile Red TAG fluorescence, overnight. Briefly: TAG accumulation blockers, Nile Red lipid stain – cell-based, H9c2 rat cardiomyoblasts, Nile Red fluorescence, primary readout, dose response (AID 743161).
`Cc1ccc(Nc2nc(OC(C(F)(F)F)C(F)(F)F)nc(N3CCOCC3)n2)cc1`: the IC50 (commonly the point on the concentration scale where inhibition reaches its midpoint) is 3.9 µM.
With `O=C(Nc1cccc(-c2nc3ccccc3[nH]2)c1)c1cccc2c1C(=O)N(CCOc1ccccc1)C2` the figure was 1.01 µM; with `CCCC(=O)Nc1nc2ccc(NC(=O)c3c(F)c(F)c(OC)c(F)c3F)cc2s1`, 8.2 µM; with `O=C(Nc1cccc2ncccc12)c1ccc(Cl)cc1`, > 50 µM (inactive).
The figure for `COCCN1Cc2cccc(C(=O)Nc3cccc(Cl)c3Cl)c2C1=O` is > 50 µM (inactive); for `Cc1ccccc1NC(=O)CSc1nc2ccc(Nc3nc(N4CCOCC4)nc(N4CCOCC4)n3)cc2s1` it is 6.86 µM; for `COCCN1Cc2cccc(C(=O)Nc3ccc(S(=O)(=O)N4CCOCC4)cc3)c2C1=O` it is > 50 µM (inactive).
With `O=C(Nc1cccc(-c2nc3ccccc3[nH]2)c1)c1ccncc1` the figure was > 50 µM (inactive); with `Cc1cccc2c(C(=O)N3CCN(c4ccccc4)CC3)cc(-c3ccncc3)nc12`, 4.25 µM.
As for `COCCn1cnc2cccc(C(=O)Nc3cccc(-c4nc5ccccc5[nH]4)c3)c2c1=O`, the IC50 is > 50 µM (inactive).
With `CCOC(=O)c1cccc(NC(=O)c2cccc3c2C(=O)N(CCOC)C3)c1` the figure was > 50 µM (inactive); with `O=C(CSc1nc2ccc(Nc3nc(N4CCOCC4)nc(N4CCOCC4)n3)cc2s1)NCc1ccco1`, 6.77 µM; with `CCOc1ccc(NC(=O)CN(C)C(=O)c2cc(-c3ccc(OC)cc3)nc3ccccc23)cc1OCC`, 15.3 µM (inactive).
With `COCCN1Cc2cccc(C(=O)Nc3cccc(-c4nc5ccccc5[nH]4)c3)c2C1=O` the figure was 1.19 µM and 1.25 µM and 1.68 µM; with `O=C(Nc1cccc(-c2nc3ccccc3[nH]2)c1)c1ccccc1`, 32.8 µM (inactive); with `Cc1ccc(-c2nc(NC(=O)c3cc(C(C)(C)C)nn3C)sc2C)cc1Cl`, 4.26 µM.
As for `COCCN1Cc2cccc(C(=O)Nc3cccc(-c4nc5ccc(C)cc5[nH]4)c3)c2C1=O`, the IC50 is 1.31 µM.
With `O=C(Nc1cccc(-c2nc3ccccc3[nH]2)c1)c1cccc2c1C(=O)N(CCc1ccccc1)C2` the figure was 8.04 µM; with `CCOCCN1Cc2cccc(C(=O)Nc3cccc(-c4nc5ccccc5[nH]4)c3)c2C1=O`, 1.18 µM.
The figure for `O=C(Nc1cccc(-c2nc3ccccc3[nH]2)c1)C1CCCC1` is 44.3 µM (inactive); for `CCn1c(SCC(=O)Nc2nc(-c3ccc(C)cc3)cs2)nnc1-c1ccccc1O` it is 7.87 µM.
Consider `COCCN1Cc2cccc(C(=O)Nc3cccc(-c4nc5ccc(C(F)(F)F)cc5[nH]4)c3)c2C1=O`, for which the IC50 was 0.832 µM.
With `CCCC(=O)Nc1nc2ccc(NC(=O)c3ccccc3F)cc2s1` the figure was 13.5 µM.
The figure for `COCCN1Cc2cccc(C(=O)Nc3cccnc3)c2C1=O` is > 50 µM (inactive); for `CN(C)CCCn1c(SCC(=O)Nc2nc(-c3cccc(Br)c3)cs2)nc2ccccc2c1=O` it is 22.8 µM (inactive).
The figure for `Cc1ccc(-c2csc(NC(=O)CSc3nc4ccccc4c(=O)n3CCCN(C)C)n2)cc1` is 17.5 µM (inactive).
`COCCN1Cc2cccc(C(=O)Nc3nc4ccccc4[nH]3)c2C1=O`: the IC50 was > 50 µM (inactive).
Turning to `O=C(Nc1cccc(-c2nc3ccccc3[nH]2)c1)c1cccc2c1C(=O)N(CCN1CCOCC1)C2`, the half-maximal inhibitory concentration (IC50) was 3.36 µM.
The figure for `COCCN1Cc2cccc(C(=O)Nc3cccc(C(=O)Nc4ccccc4OC)c3)c2C1=O` is 5.75 µM; for `COc1cc2c(cc1OC)C(C)N(C(=O)c1cc3c(C)cc(C)cc3[nH]1)CC2` (centres undefined) it is 18.2 µM (inactive); for `O=C(CSc1nc2ccc(Nc3nc(N4CCOCC4)nc(N4CCOCC4)n3)cc2s1)Nc1ccccc1Cl` it is 7.85 µM.
The figure for `Cc1ccccc1NC(=O)CSc1nc(Nc2ccccc2)nc(N2CCOCC2)n1` is 15.3 µM (inactive); for `COCCN1Cc2cccc(C(=O)Nc3cccc(C(C)=O)c3)c2C1=O` it is 17.5 µM (inactive); for `CCCN1Cc2cccc(C(=O)Nc3cccc(C(C)=O)c3)c2C1=O` it is > 50 µM (inactive).
The figure for `O=C1COc2ccc(C(=O)CSc3nc4ccccc4c(=O)n3-c3ccc(Cl)c(Cl)c3)cc2N1` is 14.9 µM; for `CCN(CC)S(=O)(=O)c1ccc(N2CCOCC2)c(NC(=O)c2[nH]c(C)c(C(C)=O)c2C)c1` it is 11.3 µM; for `CSCCCN1Cc2cccc(C(=O)Nc3cccc(-c4nc5ccccc5[nH]4)c3)c2C1=O` it is 0.661 µM.
In the case of `CCOc1ccccc1NC(=O)c1cccc(NC(=O)c2ccco2)c1`, the IC50 is 12 µM.
On to `CCCN1Cc2cccc(C(=O)Nc3ccc(C)cc3)c2C1=O`, for which the IC50 is > 50 µM (inactive).
The figure for `COc1ccc(-c2csc(NC(=O)c3ccc(OCC(=O)N4CCOCC4)c(OC)c3)n2)cc1` is 0.662 µM.
With `COCCN1Cc2cccc(C(=O)Nc3ccc(-c4nc5ccccc5[nH]4)cc3)c2C1=O` the figure was 0.0525 µM.
With `Cc1cc(C)c2nc(-c3ccncc3)cc(C(=O)N3CCN(Cc4ccccc4Cl)CC3)c2c1` the figure was 5.05 µM.
With `O=[N+]([O-])c1ccc(Nc2nc(NC3CCCCC3)nc(N3CCCC3)n2)cc1`, the IC50 was 14 µM.
The figure for `COCCN1Cc2cccc(C(=O)Nc3ccc(S(=O)(=O)N4CCCCC4)cc3)c2C1=O` is > 50 µM (inactive); for `COCCN1Cc2cccc(C(=O)Nc3ccc(C)cc3)c2C1=O` it is 19.3 µM (inactive).
The figure for `CCC(C)(C)NC(=O)C(c1ccc(C)cc1)N(Cc1ccco1)C(=O)CCC(=O)Nc1nccs1` (centres undefined) is 8.41 µM; for `O=C(CCC(=O)N1CCOc2ccc(Cl)cc21)NCCCN1CCC(Cc2ccccc2)CC1` it is 12.6 µM; for `CCCCSc1nc2ccc(Nc3nc(N4CCOCC4)nc(N4CCOCC4)n3)cc2s1` it is 7.11 µM.
The figure for `COc1cc(NC(=O)c2cc([N+](=O)[O-])ccc2NC(=O)CN2CCN(c3ccccn3)CC2)cc(OC)c1` is 8.11 µM.
`COCCN1Cc2cccc(C(=O)Nc3cccc(C(=O)Nc4ccccc4)c3)c2C1=O`: the IC50 is 2.9 µM.
Consider `COCCN1Cc2cccc(C(=O)Nc3nc4ccccc4n3C)c2C1=O`, for which the IC50 was > 50 µM (inactive).
With `CCC(C)(C)NC(=O)C(c1ccc(OC)cc1)N(Cc1cccs1)C(=O)CCC(=O)Nc1cc(C)on1` (centres undefined) the figure was 5.88 µM; with `O=C(Nc1cccc(-c2nc3ccccc3[nH]2)c1)c1cccc2c1C(=O)N(CC1CC1)C2`, 1.53 µM; with `COc1cccc(-c2cc(C(=O)Nc3ccc(N(C)C(C)=O)cc3)c3cc(Br)ccc3n2)c1`, 10.4 µM.
The figure for `COCCN1Cc2cccc(C(=O)Nc3ccc(CN4CCOCC4)cc3)c2C1=O` is > 50 µM (inactive); for `Cc1ccccc1OCCNc1cc(N2CC(C)NC(C)C2)ccc1[N+](=O)[O-]` (centres undefined) it is 11.3 µM; for `CCN(CC)S(=O)(=O)c1ccc(NC(=O)c2cccc3c2C(=O)N(CCOC)C3)cc1` it is > 50 µM (inactive).
The figure for `COCCN1Cc2cccc(C(=O)Nc3cccc(-c4nc5ccc(Cl)cc5[nH]4)c3)c2C1=O` is 1.42 µM.
Consider `COc1ccc(CCN2Cc3cccc(C(=O)Nc4cccc(-c5nc6ccccc6[nH]5)c4)c3C2=O)cc1OC`, for which the IC50 was 1.1 µM.
With `CCOc1ccc(CCNC(=O)CN2CCN(Cc3ccccc3C)C2=O)cc1OCC` the figure was 10.8 µM.
For `COc1ccccc1CCN1Cc2cccc(C(=O)Nc3cccc(-c4nc5ccccc5[nH]4)c3)c2C1=O`, the IC50 is 1.07 µM.
With `CCCCN1Cc2cccc(C(=O)Nc3cccc(-c4nc5ccccc5[nH]4)c3)c2C1=O` the figure was 0.982 µM; with `COCCN1Cc2cccc(C(=O)Nc3cccc(-c4nc5ccc(F)cc5[nH]4)c3)c2C1=O`, 1.27 µM; with `COCCCN1Cc2cccc(C(=O)Nc3cccc(-c4nc5ccccc5[nH]4)c3)c2C1=O`, 2.29 µM.
With `CC(C)CC(=O)Nc1cccc(-c2nc3ccccc3[nH]2)c1` the figure was > 50 µM (inactive); with `CCCN1Cc2cccc(C(=O)Nc3ccc(-c4nc5ccccc5[nH]4)cc3)c2C1=O`, > 50 µM (inactive).
Consider `COCCN1Cc2cccc(C(=O)Nc3cccc(Cl)c3)c2C1=O`, for which the IC50 is > 50 µM (inactive).
With `CCOC(=O)c1cc(-c2ccccc2)sc1NC(=O)C(C)N1C(=O)NC(C)(c2ccc(Cl)cc2)C1=O` (centres undefined) the figure was 8.38 µM; with `CC(=O)Nc1cccc(-c2nc3ccccc3[nH]2)c1`, > 50 µM (inactive).
